Assay results as given in paper PMC10490032, “From Monoamine Oxidase Inhibition to Antiproliferative Activity: New Biological Perspectives for Polyamine Analogs” (Molecules, 2023).

What was measured:
[1] = test system: MAO activity in LN-229 lysates; assay: MAO activity in LN-229 cell lysates, kynuramine assay; details: for Residual MAO activity in lysates: fraction of control
[2] = target: T1, human recombinant MAO A (Homo sapiens, UniProt P21397); assay: MAO A inhibition, kynuramine assay (4-hydroxyquinoline fluorescence); details: for Reversibility of MAO A inhibition: 5 μM compound for 25 min, diluted 50 times, 300 μM kynuramine; for Mode of inhibition of MAO A: Lineweaver–Burk plots / global fit; for Time dependence of MAO A inhibition (Vo/VI ratio): pre-incubation 0 to 30 min with 2.5 μM compound
T1 sequence (P21397 1-527): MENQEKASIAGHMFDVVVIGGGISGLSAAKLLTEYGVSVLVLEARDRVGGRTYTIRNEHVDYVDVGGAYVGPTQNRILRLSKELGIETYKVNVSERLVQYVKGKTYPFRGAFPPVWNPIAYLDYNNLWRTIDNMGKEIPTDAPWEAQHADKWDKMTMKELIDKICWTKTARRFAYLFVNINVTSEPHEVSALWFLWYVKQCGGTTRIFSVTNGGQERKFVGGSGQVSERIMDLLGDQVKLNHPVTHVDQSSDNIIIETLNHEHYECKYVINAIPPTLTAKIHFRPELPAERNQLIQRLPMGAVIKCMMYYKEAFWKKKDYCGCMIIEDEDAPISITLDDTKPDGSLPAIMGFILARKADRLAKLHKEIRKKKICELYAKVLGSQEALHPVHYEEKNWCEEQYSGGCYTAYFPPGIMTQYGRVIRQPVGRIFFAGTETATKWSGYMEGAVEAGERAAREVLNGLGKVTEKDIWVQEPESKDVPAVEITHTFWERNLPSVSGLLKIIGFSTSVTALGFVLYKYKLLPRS

[3] = target: murine SMOX (Mus musculus, UniProt Q99K82); parameters: made in house; host or cells: E. coli BL21 DE3; details: previous studies ref 35, 40; cited from earlier work
Sequence of murine SMOX (Q99K82 whole entry): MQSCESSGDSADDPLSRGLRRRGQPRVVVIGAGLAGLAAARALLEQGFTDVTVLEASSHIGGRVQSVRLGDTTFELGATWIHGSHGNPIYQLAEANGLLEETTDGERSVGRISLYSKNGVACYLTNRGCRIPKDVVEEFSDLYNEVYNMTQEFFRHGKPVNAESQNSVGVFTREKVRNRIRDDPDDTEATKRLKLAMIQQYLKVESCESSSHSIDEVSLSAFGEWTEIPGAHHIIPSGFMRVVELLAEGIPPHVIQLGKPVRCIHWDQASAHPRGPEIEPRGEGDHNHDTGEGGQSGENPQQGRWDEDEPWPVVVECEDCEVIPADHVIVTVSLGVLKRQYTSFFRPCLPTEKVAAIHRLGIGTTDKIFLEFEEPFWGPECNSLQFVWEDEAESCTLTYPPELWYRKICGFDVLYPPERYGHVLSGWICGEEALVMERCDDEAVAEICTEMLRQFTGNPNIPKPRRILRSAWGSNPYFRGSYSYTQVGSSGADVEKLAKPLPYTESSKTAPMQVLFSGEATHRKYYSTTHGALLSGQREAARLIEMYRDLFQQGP

[4] = test system: LN-229 glioblastoma cell line; assay: Inhibition growth assay, Trypan blue exclusion; type: cell-based, human; details: LN-229, 48 h of incubation, mean ± SD of five independent experiments in duplicate
Source text: On this basis, we investigated the antiproliferative effect of compounds 1–7 on LN-229, a human glioblastoma cell line. Compound 1 and the well-known antitumor drug doxorubicin were taken as references. […] The data in Table 3 support the lack of cytotoxicity of compound 1.
The LN-229 (human glioblastoma) was purchased from the American Type Culture Collection (ATCC) and cultured in DMEM (D2902, Sigma Chemical Co., St. Louis, MO, USA) supplemented with 3.5 g/L of glucose and 5% heat-inactivated fetal calf serum (FCS) (F7524, Sigma Chemical Co.), respectively. A total of 100 U/mL of penicillin, 100 μg/mL of streptomycin, and 0.25 μg/mL of amphotericin B (Sigma Chemical Co.) were added to the medium. Cells were cultured at 37 °C in a humidified atmosphere incubator containing 5% carbon dioxide in air.
Cells (3–6 × 10^4/well) were seeded into a 24-well cell culture plate; after 24 h, different concentrations of the test compounds or reference drug were added. After 48 h of incubation in standard conditions, the cell viability was determined by using a Trypan blue exclusion assay. Briefly, cells were detached by using a […] and 0.3 mM EDTA solution in PBS and stained with 0.1% Trypan blue solution in PBS. Unstained viable cells were immediately counted in a Burker chamber. The percentage of viable cells was calculated with respect to the untreated control culture. […] The goodness of the fit was expressed by the r^2 coefficient, and the best fit report included the analysis of variance corrected for the mean of the observations with the p values (p < 0.005 for all the tested compounds). Data are the means ± SD of at least five independent experiments in duplicate.

[5] = target: T2, human VAP-1 (Homo sapiens, UniProt Q16853); parameters: Biothie Therapies Cor; (Turku, Finland), gift; method as in PMID 21858471, PMID 30829081; details: previous studies ref 35, 40; cited from earlier work
T2 sequence (Q16853 1-763): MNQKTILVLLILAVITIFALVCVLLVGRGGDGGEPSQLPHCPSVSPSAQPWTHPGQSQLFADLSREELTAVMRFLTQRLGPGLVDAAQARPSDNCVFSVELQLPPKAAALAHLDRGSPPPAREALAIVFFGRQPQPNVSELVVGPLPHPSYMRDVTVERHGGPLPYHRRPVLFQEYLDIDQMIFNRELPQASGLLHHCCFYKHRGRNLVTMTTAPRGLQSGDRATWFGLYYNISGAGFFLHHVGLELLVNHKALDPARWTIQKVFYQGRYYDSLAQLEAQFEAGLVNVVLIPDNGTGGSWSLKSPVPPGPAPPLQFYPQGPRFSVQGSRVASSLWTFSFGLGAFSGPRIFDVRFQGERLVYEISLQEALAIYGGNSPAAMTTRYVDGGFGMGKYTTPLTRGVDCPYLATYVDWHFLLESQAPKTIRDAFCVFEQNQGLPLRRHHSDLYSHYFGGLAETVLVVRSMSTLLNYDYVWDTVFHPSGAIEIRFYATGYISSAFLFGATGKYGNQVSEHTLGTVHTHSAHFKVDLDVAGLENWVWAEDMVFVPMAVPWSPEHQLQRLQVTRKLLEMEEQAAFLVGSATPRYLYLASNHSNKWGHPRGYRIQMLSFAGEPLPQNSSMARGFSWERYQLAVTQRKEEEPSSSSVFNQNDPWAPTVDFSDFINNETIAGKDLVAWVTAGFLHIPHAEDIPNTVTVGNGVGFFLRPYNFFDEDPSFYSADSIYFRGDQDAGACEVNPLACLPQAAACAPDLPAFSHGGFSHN

[6] = target: T3, human recombinant MAO B (Homo sapiens, UniProt P27338); assay: MAO B inhibition, kynuramine assay (4-hydroxyquinoline fluorescence); details: for Reversibility of MAO B inhibition: 5 μM compound for 25 min, diluted 50 times, 300 μM kynuramine; for Mode of inhibition of MAO B: Lineweaver–Burk plots / global fit (compound 7: Figure S1); for Time dependence of MAO B inhibition (Vo/VI ratio): pre-incubation 0 to 30 min with 2.5 μM compound
T3 sequence (P27338 1-520): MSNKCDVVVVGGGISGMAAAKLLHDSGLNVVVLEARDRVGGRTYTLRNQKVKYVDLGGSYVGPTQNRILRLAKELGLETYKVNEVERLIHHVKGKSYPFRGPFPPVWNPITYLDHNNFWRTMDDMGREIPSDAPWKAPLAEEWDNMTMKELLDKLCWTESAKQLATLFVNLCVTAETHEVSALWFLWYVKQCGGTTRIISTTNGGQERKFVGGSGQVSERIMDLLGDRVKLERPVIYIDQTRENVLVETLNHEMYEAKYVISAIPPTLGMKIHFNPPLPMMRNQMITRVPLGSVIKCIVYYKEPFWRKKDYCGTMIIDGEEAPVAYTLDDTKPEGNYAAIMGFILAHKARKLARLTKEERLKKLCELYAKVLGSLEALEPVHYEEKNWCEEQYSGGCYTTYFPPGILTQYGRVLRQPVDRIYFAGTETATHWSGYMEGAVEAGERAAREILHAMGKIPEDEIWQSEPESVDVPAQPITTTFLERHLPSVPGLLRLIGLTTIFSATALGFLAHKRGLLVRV

[7] = target: T2, human VAP-1; assay: VAP-1 amine oxidase activity, Amplex Red/horseradish peroxidase assay, benzylamine as substrate
[8] = inhibitor 5 nM, 15 min pre-incubation, 300 μM kynuramine
[9] = MAO A Ki, human recombinant MAO A, kynuramine 10 μM, from slope of Vo/VI vs compound concentration (1.25–40 μM), mean ± S.D.
[10] = MAO B Ki, human recombinant MAO B, kynuramine 10 μM, from slope of Vo/VI vs compound concentration (1.25–40 μM), mean ± S.D.
[11] = KI (inhibition constant for the free enzyme) vs. MAO A, global fit, mixed model, inhibitor 0.25–2 μM, kynuramine varied
[12] = KIES (dissociation constant for the enzyme–substrate complex) vs. MAO A, global fit, mixed model, inhibitor 0.25–2 μM, kynuramine varied
[13] = kynuramine 20 μM, compound 0.05–8 μM
[14] = KI (inhibition constant for the free enzyme) vs. MAO B, global fit, mixed model, inhibitor 0.25–2 μM, kynuramine varied
[15] = KIES (dissociation constant for the enzyme–substrate complex) vs. MAO B, global fit, mixed model, inhibitor 0.25–2 μM, kynuramine varied
[16] = inhibitor 0.2 μM, 20 μM kynuramine

C#CCN(C)CCCOc1ccc(Cl)cc1Cl [Clorgyline, clorgyline]
Residual MAO activity in lysates [1, 8]: 0.34 ± 0.10

COc1ccccc1CNCCCCCCNCCCCCCCCNCCCCCCNCc1ccccc1OC [Compound 1, methoctramine, reference compound]
Ki [2, 9]: 290 ± 60 µM
Inhibition of SMOX [3]: more effective than 2
GI50 ([4]; Homo sapiens): > 20 µM
Inhibition of VAP-1 [5]: very poorly active
Ki [6, 10]: 470 ± 50 µM

COc1ccccc1CNCCCCCCNc1ccc(CCc2ccc(NCCCCCCNCc3ccccc3OC)cc2)cc1 [Compound 4]
Reversibility of MAO A inhibition [2]: full reversibility
Ki [2, 11]: 0.62 ± 0.11 µM
Ki [2, 12]: 11 ± 2 µM
Mode of inhibition of MAO A [2]: mainly competitive/mixed
Ki [2, 9]: 0.9 ± 0.2 µM
Time dependence of MAO A inhibition (Vo/VI ratio) ([2]; kynuramine 10 μM): no time dependence of the inhibition was observed
Effect on MAO activity in LN-229 lysates [1, 13]: not affected
GI50 ([4]; Homo sapiens, LN-229, 48 h): < 1 µM
GI50 [4]: 0.9 ± 0.2 µM
Reversibility of MAO B inhibition [6]: full reversibility
Ki [6, 14]: 0.31 ± 0.05 µM
Ki [6, 15]: 15 ± 2 µM
Mode of inhibition of MAO B [6]: mainly competitive/mixed
Ki [6, 10]: 0.3 ± 0.1 µM
Time dependence of MAO B inhibition (Vo/VI ratio) ([6]; kynuramine 10 μM): no time dependence of the inhibition was observed

COc1ccccc1CNCCCCCC(=O)Nc1ccc(CCc2ccc(NC(=O)CCCCCNCc3ccccc3OC)cc2)cc1 [Compound 5]
Reversibility of MAO A inhibition [2]: full reversibility
Ki [2, 11]: 0.62 ± 0.09 µM
Ki [2, 12]: 14 ± 2 µM
Mode of inhibition of MAO A [2]: mainly competitive/mixed
Ki [2, 9]: 0.6 ± 0.1 µM
Time dependence of MAO A inhibition (Vo/VI ratio) ([2]; kynuramine 10 μM): no time dependence of the inhibition was observed
Effect on MAO activity in LN-229 lysates [1, 13]: concentration-dependent inhibition
Ki ([1]; read-out: Ki for MAO activity in LN-229 lysates, kynuramine 20 μM, compound 0.05–8 μM): 2 µM
GI50 ([4]; Homo sapiens, LN-229, 48 h): < 1 µM
GI50 [4]: 0.8 ± 0.1 µM
Reversibility of MAO B inhibition [6]: full reversibility
Ki [6, 14]: 0.16 ± 0.04 µM
Ki [6, 15]: 6 ± 1 µM
Mode of inhibition of MAO B [6]: mainly competitive/mixed
Ki [6, 10]: 0.2 ± 0.1 µM
Time dependence of MAO B inhibition (Vo/VI ratio) ([6]; kynuramine 10 μM): no time dependence of the inhibition was observed
Ki [7]: ~50 µM

COc1ccccc1CNCCCCCCN1Cc2ccc3c4c(ccc(c24)C1)CN(CCCCCCNCc1ccccc1OC)C3 [Compound 6]
Ki [2, 9]: 37 ± 4 µM
GI50 ([4]; Homo sapiens, LN-229, 48 h): 2 ± 0.9 µM
Ki [6, 10]: 27 ± 4 µM

COc1ccccc1CNCCCCCCN1C(=O)c2ccc3c4c(ccc(c24)C1=O)C(=O)N(CCCCCCNCc1ccccc1OC)C3=O [Compound 7]
Ki [2, 9]: 3.2 ± 0.2 µM
GI50 ([4]; Homo sapiens, LN-229, 48 h): 0.4 ± 0.1 µM
Mode of inhibition of MAO B [6]: mainly competitive/mixed
Ki [6, 10]: 4.2 ± 0.3 µM

COc1cccc2c1C(=O)c1c(O)c3c(c(O)c1C2=O)C[C@@](O)(C(=O)CO)C[C@@H]3O[C@H]1C[C@H](N)[C@H](O)[C@H](C)O1 [DOXO, doxorubicin, reference compound]
GI50 ([4]; Homo sapiens, LN-229, 48 h): 0.012 ± 0.004 µM

C#CCN(C)[C@H](C)Cc1ccccc1 [Deprenyl, deprenyl]
Residual MAO activity in lysates [1, 8]: 0.74 ± 0.04

COc1ccc2c(c1)[nH]c1c(C)nccc12 [Harmine, reference compound]
Residual MAO activity in lysates [1, 16]: 0.37 ± 0.08
Ki ([6]; MAO B Ki, human recombinant MAO B, kynuramine 10 μM, […], mean ± S.D.): > 10 µM

C#CCN(C)Cc1ccccc1 [Pargyline, pargyline]
Residual MAO activity in lysates ([1]; inhibitor 0.5 mM, 15 min pre-incubation, 300 μM kynuramine): 0.03 ± 0.02
Residual activity in lysates after pre-incubation ([1]; pargyline pre-incubation 15 min, kynuramine 300 μM): about 3%

C[C@H](NCc1ccc(OCc2cccc(F)c2)cc1)C(N)=O [Safinamide]
Residual MAO activity in lysates [1, 16]: 0.66 ± 0.04

NCCC(=O)c1ccccc1N [kynuramine, reference compound]
Km ([1]; read-out: apparent KM in LN-229 lysates, substrate, Michaelis–Menten fit): 25 ± 3 µM
Km ([6]; read-out: KM for MAO B, substrate, human recombinant MAO B): 27 ± 4 µM
